Literature values, collected in US5401490A, “Markers of tissue hypoxia” (priority 1989, dated 1995).

How the values were obtained:
EMT-6 cells = conditions: 50 μM comparison, previously determined value; cited from earlier work
V-79 hamster cells = conditions: hypoxic in vitro; cited from earlier work
EMT-6 murine tumor cells = conditions: hypoxic in vitro; cited from earlier work
EMT-6 tumors = conditions: BALB/C mice; cited from earlier work
hypoxic cell [1] = conditions: in vitro; cited from earlier work
[2] = cited from earlier work
hypoxic cell [3] = conditions: in vitro; cited from earlier work; remark: listed apart in the source

Compound | sensitizer enhancement ratio (SER) (EMT-6 cells) | binding to the macromolecular fraction (V-79 hamster cells) | binding to the macromolecular fraction (EMT-6 murine tumor cells) | binding to EMT-6 tumors in vivo (EMT-6 tumors) | hypoxic cell toxicity compared with MISO (hypoxic cell [1]) | metabolic deiodination in vivo [2] | rates of binding compared with MISO (hypoxic cell [3])
COCC(O)Cn1ccnc1[N+](=O)[O-] (centres unmarked) [MISO, misonidazole] | 1.2 | selectively bound to the macromolecular fraction | selectively bound to the macromolecular fraction | selectively bound | – | – | –
O=[N+]([O-])c1nccn1C1OC(CI)C(O)C1O (centres unmarked) [IAZR, (1-5'-iodo-5'deoxyribofuranosyl)-2-nitroimidazole] | 1.6 | – | – | – | greater hypoxic cell toxicity | subject to metabolic deiodination | rates of binding than MISO
